Patent US20230382919A1, “OXA- IBOGAINE INSPIRED ANALOGUES FOR TREATMENT OF NEUROLOGICAL AND PSYCHIATRIC DISORDERS” (The Trustees of Columbia University in the City of New York, priority 2021, published 2023)
Read-outs that look alike come from different tables or passages of the source.

Tests used:
[1] = target: KOR (Rattus norvegicus (Rat), UniProt P34975); test: KOR agonist (cAMP) assay, CHO cells (commercial); type: cell-based; conditions: CHO, Table 2; for Emax at 10 µM: read-out: % of control agonist maximal response (KOR); for EC50: cAMP agonist assay, rat KOR
From the text: (§1) Potency (IC50 and EC50) and efficacy values for hERG, rKOR-CHO, hMOR-CHO, h5-HT2A-HEK, h5-HT2B-CHO, h5-HT2C HEK were obtained by screening the selected compounds via commercially available assay services.

[2] = target: 5-HT2C (Homo sapiens (Human), UniProt P28335); test: 5-HT2C agonist (IP1) assay, HEK-293 cells (commercial); type: cell-based; conditions: for Emax at 10 µM: HEK293, read-out: % of control agonist maximal response (5-HT2C); for EC50: IP1 agonist assay
Sequence of 5-HT2C (P28335 whole entry, looked up): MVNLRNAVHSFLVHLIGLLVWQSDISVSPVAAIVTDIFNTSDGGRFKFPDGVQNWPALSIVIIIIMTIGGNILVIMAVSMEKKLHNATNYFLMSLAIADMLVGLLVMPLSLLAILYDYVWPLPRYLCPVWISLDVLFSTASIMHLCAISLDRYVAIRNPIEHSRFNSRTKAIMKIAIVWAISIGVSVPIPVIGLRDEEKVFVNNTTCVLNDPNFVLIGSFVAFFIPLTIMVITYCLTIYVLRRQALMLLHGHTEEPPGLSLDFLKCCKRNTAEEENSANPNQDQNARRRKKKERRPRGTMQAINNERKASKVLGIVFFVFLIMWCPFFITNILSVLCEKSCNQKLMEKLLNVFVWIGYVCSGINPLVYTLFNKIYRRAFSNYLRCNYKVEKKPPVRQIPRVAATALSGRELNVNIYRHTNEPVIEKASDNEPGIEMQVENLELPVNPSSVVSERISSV
From the text: as §1

[3] = target: 5-HT2B (Homo sapiens (Human), UniProt P41595); test: 5-HT2B agonist (IP1) assay, CHO cells (commercial); type: cell-based; conditions: for Emax at 10 µM: CHO, read-out: % of control agonist maximal response (5-HT2B); for EC50: IP1 agonist assay
Sequence of 5-HT2B (P41595 whole entry): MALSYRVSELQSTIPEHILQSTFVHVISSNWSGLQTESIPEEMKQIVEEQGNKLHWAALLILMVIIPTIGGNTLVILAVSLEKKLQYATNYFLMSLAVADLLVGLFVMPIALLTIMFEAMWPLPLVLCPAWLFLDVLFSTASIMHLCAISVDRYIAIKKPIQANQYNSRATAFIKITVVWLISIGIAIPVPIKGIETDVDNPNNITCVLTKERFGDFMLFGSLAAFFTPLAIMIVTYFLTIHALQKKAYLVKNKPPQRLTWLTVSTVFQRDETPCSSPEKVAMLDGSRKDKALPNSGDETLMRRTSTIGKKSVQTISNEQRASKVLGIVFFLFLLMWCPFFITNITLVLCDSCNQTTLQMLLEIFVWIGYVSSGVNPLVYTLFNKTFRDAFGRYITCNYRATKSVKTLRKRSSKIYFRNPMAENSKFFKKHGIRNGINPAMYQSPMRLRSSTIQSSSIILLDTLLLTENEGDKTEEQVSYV
From the text: as §1

[4] = target: 5-HT2A (Homo sapiens (Human), UniProt P28223); test: 5-HT2A agonist (IP1) assay, HEK-293 cells (commercial); type: cell-based; conditions: for Emax at 10 µM: HEK293, read-out: % of control agonist maximal response (5-HT2A); for EC50: IP1 agonist assay
From the text: as §1

[5] = target: hSERT (Homo sapiens (Human), UniProt P31645); test: hSERT fluorometric screening assay (APP+ uptake, hSERT-HEK cells); type: cell-based; conditions: average ± SEM, n ≥ 4; read-out: IC50 SERT [μM ± SEM]
Protocol: (§2) Inhibition assays of transporters (hSERT and rVMAT2) were performed according to the following protocol.
(§3) Stably transfected hSERT-HEK and rVMAT2-HEK cellular cultures were maintained in Dulbecco's Minimal Essential Medium (DMEM) with GlutaMAX (Gibco) with the following additions: 10% (v/v) Fetal Bovine Serum (FBS, Atlanta Biologicals), 100 U/mL Penicillin (Gibco), and 10 μg/mL Streptomycin (Gibco). With regards to the former cell lineage, an additional ingredient, 500 μg/mL Geneticin (G418) (Gibco) was included to preserve the respective transgene.
(§4) For both hSERT and rVMAT2 screening experiments, respective singly transfected cells were seeded at a density of 0.09×10^6 cells/well in poly-D-Lysine (Alamanda Polymers, Inc.) coated white solid-bottom 96-well plates (Costar). Growth was permitted for approximately 44 hours in said aqueous media and at an incubation environment of 37° C. and 5% Carbon Dioxide. At the beginning of the experiment, the cellular growth solution was aspirated, and individual cells were rinsed with 150 μL of 1×Dulbecco's Phosphate Buffered Saline (PBS; HyClone). 63 μL of Experimental Media (consisting of the following contents: DMEM without phenol red but with 4.5 g/L of D-Glucose (Gibco), 1% (v/v) FBS (Atlanta Biologicals), 100 U/mL Penicillin (Gibco), and 10 μg/mL Streptomycin (Gibco)) with 2×tiered concentrations of inhibitor (or DMSO, the vehicle of these experiments) were added to the respective wells. Control inhibitors used in these studies include Imipramine for hSERT experiments, and Reserpine for rVMAT2 experiments (Eiden, L. E. and Weihe, E. 2011; Sette, M. et al. 1983). At the conclusion of the pre-incubation period (60 minutes for hSERT experiments and 30 minutes for rVMAT2 experiments), 63 μL of Experimental Media containing 2×various concentrations of tested inhibitor (or vehicle) along with a specified amount of fluorescent substrate, APP^+ (Karpowicz, R. J. et al 2013) (final concentration: 1.1 μM for hSERT experiments) or FFN206 (Hu, G. et al. 2013) (final concentration: 0.75 μM for rVMAT2 experiments) were added to the present solution contained within the wells. […] A final solution of 120 μL of PBS is finally added to all corresponding wells for cell maintenance before undergoing fluorescence uptake reading by a BioTek H1MF plate reader. […]
(§5) Numerical analysis of the collected experimental data preceded as accordingly. Respective inhibitor values were first subtracted from vehicular values to quantify the respective fluorescence uptake. This metric was then analyzed using the dose-response-inhibitor nonlinear curve fitting model ([inhibitor] vs response (three parameters)) as supplied by GraphPad Prism 8 software. […]

[6] = target: rVMAT2 (Rattus norvegicus (Rat), UniProt Q01827); test: rVMAT2 fluorometric screening assay (FFN206 uptake, rVMAT2-HEK cells); type: cell-based; conditions: average ± SEM, n ≥ 4; read-out: IC50 VMAT2 [μM ± SEM]
Sequence of rVMAT2 (Q01827 whole entry): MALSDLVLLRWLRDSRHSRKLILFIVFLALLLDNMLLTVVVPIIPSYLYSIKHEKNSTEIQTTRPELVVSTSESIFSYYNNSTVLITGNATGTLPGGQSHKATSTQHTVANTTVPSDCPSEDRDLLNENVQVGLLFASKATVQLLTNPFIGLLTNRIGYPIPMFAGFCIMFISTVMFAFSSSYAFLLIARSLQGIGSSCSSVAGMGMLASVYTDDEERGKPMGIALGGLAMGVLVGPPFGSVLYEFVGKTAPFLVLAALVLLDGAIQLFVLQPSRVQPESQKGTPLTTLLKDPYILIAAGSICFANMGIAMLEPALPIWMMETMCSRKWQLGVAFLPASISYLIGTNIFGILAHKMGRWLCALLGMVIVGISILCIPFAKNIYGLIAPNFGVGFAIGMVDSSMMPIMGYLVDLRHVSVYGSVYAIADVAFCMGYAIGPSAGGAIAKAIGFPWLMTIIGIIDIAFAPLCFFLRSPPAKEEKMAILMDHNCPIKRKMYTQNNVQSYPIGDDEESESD
Protocol: as §2, §3, §4, §5

[7] = target: hERG (Homo sapiens (Human), UniProt Q12809); test: hERG radioligand ([3H]Dofetilide) displacement binding assay (commercial); conditions: Table 4
Sequence of hERG (Q12809 whole entry): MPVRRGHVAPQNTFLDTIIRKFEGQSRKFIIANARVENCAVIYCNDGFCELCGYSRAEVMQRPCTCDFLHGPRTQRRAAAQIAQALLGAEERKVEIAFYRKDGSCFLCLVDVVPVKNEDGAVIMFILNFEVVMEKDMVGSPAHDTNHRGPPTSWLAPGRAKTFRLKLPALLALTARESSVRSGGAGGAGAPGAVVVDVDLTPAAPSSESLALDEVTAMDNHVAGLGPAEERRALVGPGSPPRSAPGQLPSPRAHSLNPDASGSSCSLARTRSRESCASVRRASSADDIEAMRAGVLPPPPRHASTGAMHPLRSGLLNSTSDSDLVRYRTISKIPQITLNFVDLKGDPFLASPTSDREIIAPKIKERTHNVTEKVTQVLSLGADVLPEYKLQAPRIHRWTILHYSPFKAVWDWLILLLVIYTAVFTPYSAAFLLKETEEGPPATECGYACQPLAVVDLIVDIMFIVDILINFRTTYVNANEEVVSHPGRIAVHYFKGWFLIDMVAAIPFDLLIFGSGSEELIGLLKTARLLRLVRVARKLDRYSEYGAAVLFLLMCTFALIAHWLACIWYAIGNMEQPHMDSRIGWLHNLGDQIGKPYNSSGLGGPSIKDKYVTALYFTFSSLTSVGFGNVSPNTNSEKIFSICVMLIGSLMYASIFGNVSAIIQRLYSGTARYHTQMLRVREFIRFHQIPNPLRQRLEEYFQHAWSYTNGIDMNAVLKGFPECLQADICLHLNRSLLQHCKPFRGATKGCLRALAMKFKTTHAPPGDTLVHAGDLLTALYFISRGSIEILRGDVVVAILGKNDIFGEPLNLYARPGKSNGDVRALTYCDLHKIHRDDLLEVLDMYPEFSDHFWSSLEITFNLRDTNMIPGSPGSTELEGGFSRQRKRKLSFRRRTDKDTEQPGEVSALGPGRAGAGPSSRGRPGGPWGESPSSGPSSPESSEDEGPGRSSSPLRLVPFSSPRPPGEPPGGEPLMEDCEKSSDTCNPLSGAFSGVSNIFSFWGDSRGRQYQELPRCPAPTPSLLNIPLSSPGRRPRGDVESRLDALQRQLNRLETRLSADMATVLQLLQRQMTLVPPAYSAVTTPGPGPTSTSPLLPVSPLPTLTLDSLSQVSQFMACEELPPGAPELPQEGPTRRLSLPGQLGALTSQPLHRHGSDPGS
From the text: as §1

[8] = target: rat KOR (rKOR) (Rattus norvegicus (Rat), UniProt P34975); test: G-protein BRET functional opioid assay, KOR; type: cell-based
Protocol: (§6) HEK-293T cells were obtained from the American Type Culture Collection (Rockville, MD) and were cultured in a 5% CO2 atmosphere at 37° C. in Dulbecco's Modified Eagle Medium (high glucose #11965; Life Technologies Corp.; Grand Island, NY) supplemented with 10% FBS (Premium Select, Atlanta Biologicals; Atlanta, GA), 100 U/mL penicillin, and 100 μg/mL streptomycin (#15140, Life Technologies). DNA Constructs: The mouse MOR (mMOR), the mouse DOR (mDOR) and the rat KOR (rKOR) were provided by Dr Lakshmi Devi at Mount Sinai School of Medicine. The G proteins used included untagged GαoB with Renilla luciferase 8 (RLuc8) inserted at position 91 (GαoB-RLuc8); Gβ1 (β1); Gγ2 which was fused to the full-length mVenus at its N-terminus via the amino acid linker GSAGT (mVenus-γ2). All constructs were sequence confirmed prior to use in experiments.
(§7) Transfection: The following cDNA amounts were transfected into HEK-293T cells (5×10^6 cells/plate) in 10-cm dishes using polyethylenimine (PEI) in a 1:1 ratio (diluted in Opti-MEM, Life Technologies): 2.5 μg MOR/DOR/KOR, 0.125 μg GαoBRLuc8, 6.25 μg (1, 6.25 μg mVenus-γ2. Cells were maintained in the HEK-293T media described above. After 24 hours the media was changed, and the experiment was performed 24 hours later (48 hours after transfection). BRET: Transfected cells were dissociated and re-suspended in phosphate-buffered saline (PBS). Approximately 200,000 cells/well were added to a black-framed, white-well, 96-well plate (#60050; Perkin Elmer; Waltham, MA). The microplate was centrifuged and the cells were resuspended in PBS. After 5 minutes, 5 μM of the luciferase substrate coelenterazine H was added to each well. After 5 minutes, ligands were added and the BRET signal was measured 5 minutes later on a PHERAstar FS plate reader. The BRET signal was quantified by calculating the ratio of the light emitted by the energy acceptor, mVenus (510-540 nm), over the light emitted by the energy donor, RLuc8 (485 nm). This drug-induced BRET signal was normalized using the Emax of a known agonist (DAMGO, DPDPE or U-50,488) as the maximal response at MOR/DOR/KOR. Data were analyzed using the dose-response-stimulation nonlinear curve fitting model (log[agonist] vs. response (three parameters)).

[9] = target: mouse DOR (mDOR) (Mus musculus (Mouse), UniProt P32300); test: G-protein BRET functional opioid assay, DOR; type: cell-based
Protocol: as §6, §7

[10] = target: mouse MOR (mMOR) (Mus musculus (Mouse), UniProt P42866); test: G-protein BRET functional opioid assay, MOR; type: cell-based
Sequence of mouse MOR (mMOR) (P42866 whole entry, looked up): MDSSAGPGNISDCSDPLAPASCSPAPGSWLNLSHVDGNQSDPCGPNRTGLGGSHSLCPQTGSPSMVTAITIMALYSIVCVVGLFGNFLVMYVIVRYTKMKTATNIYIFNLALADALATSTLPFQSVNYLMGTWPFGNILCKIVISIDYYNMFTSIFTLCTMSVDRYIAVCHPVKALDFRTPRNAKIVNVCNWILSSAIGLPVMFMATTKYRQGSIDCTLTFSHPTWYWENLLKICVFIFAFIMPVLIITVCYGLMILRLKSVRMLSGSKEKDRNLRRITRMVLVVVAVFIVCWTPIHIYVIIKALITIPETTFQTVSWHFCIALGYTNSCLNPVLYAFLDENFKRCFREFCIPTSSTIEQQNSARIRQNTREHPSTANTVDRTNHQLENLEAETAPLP
Protocol: as §6, §7

`c1ccc2c3c(oc2c1)CCCNC3` [drawing 163] showed an Emax at 10 µM [1] of 45%, an EC50 [1] of about 4400 nM and an Emax at 10 µM ([2]; Table 2) of 78%. For the same compound, the EC50 ([2]; Table 2) was about 1300 nM, the Emax at 10 µM ([3]; Table 2) was 22% and the EC50 ([3]; Table 2) was over 10000 nM. The Emax at 10 µM ([4]; Table 2) was 26% and the EC50 ([4]; Table 2) was about 60000 nM.
In the case of `c1ccc2c3c(oc2c1)CCNCC3` [drawing 161], the Emax at 10 µM [1] is reported as 36%, the EC50 [1] is reported as about 1200 nM and the Emax at 10 µM ([2]; Table 2) is reported as 90%. It also gave an EC50 ([2]; Table 2) of under 100 nM, an Emax at 10 µM ([3]; Table 2) of 20% and an EC50 ([3]; Table 2) of over 10000 nM. For the same compound, the Emax at 10 µM ([4]; Table 2) was 77% and the EC50 ([4]; Table 2) was about 1000 nM.
Work on `CN1CCCc2oc3ccccc3c2C1` [drawing 168] yielded an IC50 [5] of 7.1 ± 2.3 µM and an IC50 [6] of 15 ± 4.6 µM.
For `CC1Cc2oc3ccc(O)cc3c2CCN1` (centres unmarked) [drawing 170], the Emax at 10 µM ([2]; Table 4) was 86%, the EC50 ([2]; Table 4) was 400 nM and the Emax at 10 µM ([4]; Table 4) was 45%. It also gave an EC50 ([4]; Table 4) of 1900 nM.
Compound `Oc1ccc2oc3c(c2c1)CCN1CCCC3C1` (centres unmarked) [drawing 171] has an Emax at 10 µM ([2]; Table 4) of under 0%, an EC50 ([2]; Table 4) of over 10000 nM and an Emax at 10 µM ([3]; Table 4) of 5%. For the same compound, the EC50 ([3]; Table 4) was 400 nM, the Emax at 10 µM ([4]; Table 4) was 1% and the EC50 ([4]; Table 4) was over 10000 nM. The IC50 ([7]; [3H]Dofetilide displacement) was about 60000 nM and the inhibition at 30 µM ([7]; human, HEK-293 cells expressing hERG, probe [3H]Dofetilide, efficacy at 30 μM, read-out: % inhibition of control specific binding (hERG)) was 38%.
`c1ccc2c3c(oc2c1)CCNCC3` [drawing 165] was tested, and the IC50 [5] was 0.45 ± 0.06 µM and the IC50 [6] was 1.4 ± 0.23 µM.
Compound `CC1Cc2oc3ccc(O)cc3c2CCN1C` (centres unmarked) has an EC50 [8] of 79 nM, an Emax ([8]; normalized to U-50,488, read-out: % of control agonist maximal response (KOR)) of 53% and an EC50 [9] of 1200 nM. It also gave an Emax ([9]; normalized to DPDPE, read-out: % of control agonist maximal response (DOR)) of 66%, an EC50 [10] of 320 nM and an Emax ([10]; normalized to DAMGO, read-out: % of control agonist maximal response (MOR)) of 46%.
